Consider six compounds from patent US20060160785A1, “Ezetimibe polymorphs” (priority 2004, published 2006).

Series [1] in a line: Transformation of ezetimibe crystal forms by heating (XRD). The class given is physicochemical. From the text: In the following examples, the forms of ezetimibe were identified using Scintag X-ray powder diffractometer model X'TRA, Cu-tube solid state detector. The sample holder was a round standard aluminum sample holder with rough zero background quartz plate with a cavity of 25 (diameter) X 0.5 mm (depth). The scanning parameters were range: 2-40 degrees two-theta; scan mode: continuous scan; step size: 0.05 deg.; and a rate of 3 deg/min.
After two hours, each sample was removed and analyzed by XRD.

Series [2] in a line: Solubility of ezetimibe. The class given is physicochemical. The settings on record: water.
The conditions of series [3]: cited from earlier work.
The conditions of series [4]: reported; cited from earlier work.
Series [5] is described as follows: Transformation under different relative humidities (XRD and KF). To be noted: for Crystal form / Water content by KF: 25-30° C. Type of series: physicochemical. The method, then: 500 mg samples were placed in an open glass bottle at a temperature of 25° C. to 30° C., under various humidity for a sufficient time (1-14 days) for each sample to equilibrate. At the end of each time period, each sample was removed and analyzed by XRD and by KF. The results are summarized below in Tables 6-7 for starting Forms A and B, respectively.

Series [6] can be described thus: Effect of pressing on crystalline stability. The class given is physicochemical. To be noted: pressed 1 minute, approximately 1300 psi. The protocol:
Crystalline stability of Form A and Form B was tested by pressing each of the forms for about 1 minute under a pressure of about 1300 psi. […] Form A is also stable under pressing.
Forms A and B were studied under pressure. The forms were pressed for 1 minute under a pressure of approximately 1300 psi.

The nature of series [7]: Micronization (milling) crystal form stability. Type of series: physicochemical. The method, then:
Micronization of Form B is preferably carried out by milling Form B using a feed air rate of about 6 bar and a grinding air pressure of about 5 bar, for about 20 to about 30 minutes.
Form B was milled by a 50 mm micronizer for about 20 to 30 minutes. The feed air rate was 6.0 bar and the grinding air was 5.0 bar. The sample was analyzed before and after micronization by XRD. During micronization 65% (estimated by XRD and by KF) of Form B converted to Form A. The estimated water content is 1-2% by weight. Micronization of Form A on the other hand results in Form A.

Series [8] in a line: Particle size distribution by Malvern laser diffraction. Type of series: physicochemical. To be noted: prime particles with sonication. The method, then:
A Malvern Laser Diffraction instrument was used to characterize the particle size distribution of ezetimibe. A Mastersizer S model equipped with a small cell dispersion unit MS1 with a digital dispersion unit controller was used. The measurement was done using range lens 300RF (working range 0.05-900 mcm), beam length: 2.40 mm and presentation 3NHE. In this case, a solution of dioctyl sulfosuccinate sodium salt in n-hexane was used as a dilution medium. The measurement was started after 1 minute of recirculation after suspension addition into measurement cell at speed rate 2000±10 rpm.
The suspension was prepared of 0.1 g sample in solution 0.065% dioctyl sulfosuccinate sodium salt in n-hexane by vortex for 10 seconds and by sonication for 30 seconds. According to the accepted rules of Good Manufacture Procedures, the sample of ezetimibe is preferably measured after a successful blank measurement (% obscuration NMT 0.1% is performed.

Series [9] is described as follows: Specific surface area (Coulter SA3100, BET). Type of series: physicochemical. The method, then: Specific surface area was measured using the following parameters:
Instrument: Coulter SA3100
(§1) Table 8 illustrates the maximum particle size and specific surface area of ezetimibe Form B before and after micronization. The maximum particle size was determined by microscope observation.

Series [10] is described as follows: Maximum particle size by microscope observation. Type of series: physicochemical. The method, then:
(§2) 1 g mixture of micronized Form A and B was stored at 30° C. under 100% RH for 8 days. The mixture of Form A and Form B converted to 100% Form B after storage. Micronized Form B contained 4.1% water by weight based on Karl Fischer analysis. The micronized sample was analyzed before and after storage by XRD. The material was dispersed in light mineral oil before measurement for microscope observation. Form B was in the shape of needles and plates.
as §1

Series [11] can be described thus: Stability of Form B in water slurry. The class given is physicochemical. The method, then:
Ezetimibe Form B was stirred in soft water (25 ml) for 4 h at room temperature (heavy slurry). The mixture was filtered and washed with water (20 ml). The wet sample, after washing, was Form B. The solid was dried under vacuum at 45° C. for 18 hrs. The dry sample contained Form B (20-30% by weight) and Form A. 95% yield.

Series [12] is described as follows: Storage of micronized Form A and B mixture at 30° C., 100% RH. The class given is physicochemical. To be noted: 8 days. The protocol: as §2
[13] abbreviates: 50 mm micronizer, 20 to 30 minutes.

In brackets after ≈: the same amount, converted by molar mass. Entries after “also recorded” stand apart in the source; their conditions may differ.

As usually defined, the solubility is the dissolved amount per volume that the medium holds. A high value points to much dissolved substance.

Consider `O=C1[C@H](CC[C@H](O)c2ccc(F)cc2)[C@@H](c2ccc(O)cc2)N1c1ccc(F)cc1` [Amorphous Form, 1-(4-fluorophenyl)-3(R)-[3-(4-fluorophenyl)-3(S)-hydroxypropyl]-4(S)-(4-hydroxyphenyl)-2-azetidinone], for which the “heat transformation result (crystal form by XRD)” value (shortened to “heat transformation result”) in series [1] (60° C., 2 h, atmospheric oven) is “Amorphous Form”; in [1] (90° C., 2 h, atmospheric oven), “Form A”. Also, the “temperature at which it transforms to Form A” value in series [1] (heating) is “above 60 °C”.
`O=C1[C@H](CC[C@H](O)c2ccc(F)cc2)[C@@H](c2ccc(O)cc2)N1c1ccc(F)cc1` [Ezetimibe, 1-(4-fluorophenyl)-3(R)-[3-(4-fluorophenyl)-3(S)-hydroxypropyl]-4(S)-(4-hydroxyphenyl)-2-azetidinone] yielded a solubility in series [2] of 10 µg/mL (≈ 24.4 µM). Besides, in series [3] (ethanol, methanol, acetone), the “solubility in ethanol, methanol, and acetone” value is “freely to very soluble”. For the same compound, the “solubility in water” value in series [3] (water) is on record as “practically insoluble”. Moreover, in [4], the “stability at ambient temperature” value was “stable”.
For `O=C1[C@H](CC[C@H](O)c2ccc(F)cc2)[C@@H](c2ccc(O)cc2)N1c1ccc(F)cc1` [Form A, 1-(4-fluorophenyl)-3(R)-[3-(4-fluorophenyl)-3(S)-hydroxypropyl]-4(S)-(4-hydroxyphenyl)-2-azetidinone], the “heat transformation result” value in [1] (60° C., 2 h, atmospheric oven) is recorded as “Form A”; in series [1] (90° C., 2 h, atmospheric oven), “Form A”; in series [1] (110° C., 2 h, atmospheric oven) it was “Form A”. Further, the stability upon heating result in [1] (even at high temperatures) is recorded as “stable”. Moreover, the Crystal form result in series [5] (RH 0%, 12 days) is on record as “Form A”; in series [5] (RH 20%, 7 days), “Form A + ˜5% B*”; in [5] (RH 40%, 12 days), “Form A + ˜5-10% B*”; in series [5] (RH 80%, 12 days), “Form B”; in series [5] (RH 100%, 1 day) it was “Form B”. Also, the “Water content by KF” value was found to be 0.2 wt % in series [5] (RH 0%, 12 days); 0.2 wt % in series [5] (RH 20%, 7 days); 0.3 wt % in series [5] (RH 40%, 12 days); 4.5 wt % in [5] (RH 80%, 12 days); 4.3 wt % in series [5] (RH 100%, 1 day). Moreover, the “Sample after pressing (crystal form)” value in [6] is “stable; also recorded: Form A + ˜5% B”. Besides, in series [7] (setting [13]), the “crystal form after micronization” value is “Form A”. Besides, the stability upon micronization entry in series [7] (milling, feed air 6 bar, grinding air 5 bar) was “stable”. Also, the “d (0.5)” value in [8] is reported as 3.18-3.33 microns. Moreover, in [8], the “d (0.9)” value was 7.95-8.05 microns. For the same compound, in [8], the “d(0.1)” value is recorded as 0.39 microns.
On to `O=C1[C@H](CC[C@H](O)c2ccc(F)cc2)[C@@H](c2ccc(O)cc2)N1c1ccc(F)cc1` [Form B, 1-(4-fluorophenyl)-3(R)-[3-(4-fluorophenyl)-3(S)-hydroxypropyl]-4(S)-(4-hydroxyphenyl)-2-azetidinone], for which the “heat transformation result” value in series [1] (45° C., 18 h) is reported as “Form A”; in [1] (60° C., 2 h, atmospheric oven), “Form A”; in series [1] (90° C., 2 h, atmospheric oven) it was “Form A”; in series [1] (110° C., 2 h, atmospheric oven), “Form A”. The Crystal form result is “Form A” in [5] (RH 0%, 14 days); “Form A + ˜5% B*” in series [5] (RH 20%, 7 days); “Form B” in series [5] (RH 40%, 14 days); “Form B” in [5] (RH 80%, 14 days); “Form B” in [5] (RH 100%, 14 days). In addition, the “Water content by KF” value is given as 0.1 wt % in [5] (RH 0%, 14 days); 0.2 wt % in series [5] (RH 20%, 7 days); 4.0 wt % in series [5] (RH 40%, 14 days); 4.3 wt % in series [5] (RH 80%, 14 days); 4.4 wt % in [5] (RH 100%, 14 days). Besides, in series [6], the “Sample after pressing (crystal form)” value is listed as “retains its crystalline form; also recorded: Form B”. The “estimated water content after micronization” value in [7] (setting [13]) is 1-2 % by weight. Also, the “Form B converted to Form A during micronization” value in series [7] (50 mm micronizer, 20 to 30 minutes, estimated by XRD and by KF) was 65%. Further, the values for the SSA in [9] (After micronization) and in [9] (Before micronization) were 6.8 m^2/g and 3.4 m^2/g, respectively. Besides, the Maximum particle size in series [10] (After micronization) stood at 20 μm; in [10] (Before micronization), 400 μm. Further, in series [11] (dried under vacuum at 45° C. for 18 hrs, remainder Form A), the “Form B content of dry sample after water slurry” value is listed as 20-30 % by weight. In addition, the “crystal form of wet sample after water slurry” value in [11] (soft water, 4 h, room temperature, filtered and washed) is listed as “Form B”.
As for `O=C1[C@H](CC[C@H](O)c2ccc(F)cc2)[C@@H](c2ccc(O)cc2)N1c1ccc(F)cc1` [Micronized Form B], the “stability in relative humidity” value in series [5] (relative humidity of about 40% to about 100%) is on record as “stable”. The “water content by Karl Fischer after storage” value in [12] turned out to be 4.1 % by weight. In addition, the stability upon slurrying entry in [11] is listed as “stable”.
Consider `O=C1[C@H](CC[C@H](O)c2ccc(F)cc2)[C@@H](c2ccc(O)cc2)N1c1ccc(F)cc1` [mixture of micronized Form A and B], for which, in series [12], the “Form B content after storage” value was 100%.
